In patent publication US9131687B2, “Roseobacticides and uses thereof” (PRESIDENT AND FELLOWS OF HARVARD COLLEGE, priority 2010, dated 2015):
Values joined by “and” are separate entries in the source; they are usually repeats but may differ in a detail not shown here. Equal values may be shown once. Read-outs that look alike come from different tables or passages of the source.

Key:
Emiliana huxleyi CCMP372 = test: Algaecidal assay, cell counts by flow cytometry and microscopy; type: cell-based; details: for IC50: Emiliana huxleyi CCMP372, 24 h, flow cytometry; for algal cell population damaged yet intact: lowest Roseobacticide concentration tested, microscopy; for effect of incubation on E. huxleyi cells: microscopy at 12 and 24 h
Experimental: (§1) The algaecidal effect of Roseobacticide A and B was tested against five axenic microalgae (the Prymnesiophytes Emiliana huxleyi (CCMP372) and Isochrysis sp. (CCMP468), the green alga Tetraselmis suecica (CCMP908), the diatom Chaetoceros muelleri (CCMP1318) and the cryptomonad Rhodomonas salina (CCMP1319)). All strains were grown on L1 media except for CCMP1318, which was grown in L1+Si (Guillard, R. R. L. & Hargraves, P. E., 1993, Phycologia 32: 234-236). All strains were maintained at 24° C. under 12 h:12 h light:dark illumination.
(§2) To perform assays, algal cultures were diluted 1:1 with the medium they were grown in and then 1 mL aliquots were placed in a 48 well microtitre plate and treated with 0.01-0.000000001 mg/mL of Roseobacticide A or B, or alternatively with MeOH solvent, or medium (as controls) and incubated for 24 h at 24° C. under 12 h: 12 h light:dark illumination. Each treatment was monitored microscopically at 2, 12 and 24 h. Cell counts were determined by flow cytometry and compared to the solvent control.
(§3) Flow cytometry. For flow cytometry counts, duplicate 0.5 ml samples were fixed with 0.125% (vol/vol) glutaraldehyde in the dark for 10 min. Cells were then frozen in an ethanol dry ice bath and stored at −80° C. until analyzed. Cell concentrations were measured with an EPICS flow cytometer using red fluorescence and forward angle light scattering properties to identify the cells as previously described (Cavender-Bares, K. K., et al., 1998, Limnol. Oceanogr. 43:1383-1388).

P. gallaeciensis BS107 = test: Elicitation of roseobacticide production, HPLC-MS; type: cell-based, Phaeobacter gallaeciensis BS107; details: for secondary metabolite production by HPLC-MS: P. gallaeciensis BS107 incubated with elicitor; for EC50: Phaeobacter gallaeciensis
Experimental: (§4) Roseobacter (Phaeobacter gallaeciensis BS107, Ruegeria sp. R11 and Silicibacter pomeroyi DSS3) and other marine strains (see Table 4) were streaked out from frozen stocks and maintained on Marine Broth (Difco 2216) supplemented with 1.5% agar and incubated at 30° C. for two days. A 50 mL test tube containing 5 mL of ½ strength yeast extract, tryptone and sea salt medium (YTSS, per L: 2 g yeast extract, 1.25 g tryptone, 20 g sea salt) was inoculated with each strain and grown overnight at 30° C. on a horizontal rotating drum fermenter. A 500 mL Erlenmeyer flask containing 50 mL of YTSS medium and 0-3 mM pCA was inoculated with 0.5 mL of the overnight culture and incubated at 160 rpm and 30° C. for 3 d. After 3 d, each culture was extracted once with an equal volume of ethyl acetate, dried in vacuo, resuspended in methanol and analyzed by HPLC-MS as described above.
Preparative-scale (2-8 L) cultivation of P. gallaeciensis BS107 (or other roseobacter strains) was carried out in half-strength yeast extract-tryptonesea salt (YTSS) medium, which consists of (per L): 20 g Sigma sea salt, 2 g yeast extract, and 1.25 g tryptone. P. gallaeciensis BS107 (or other roseobacter strains) were streaked out from frozen culture stocks and maintained on Marine Broth agar plates (Difco 2216) at 30° C. Overnight cultures were initiated by inoculating 5 mL YTSS medium in 15 mL culture tubes and shaking these overnight at 250 rpm and 30° C. A 0.5 L Erlenmeyer flask containing 50 mL YTSS medium was inoculated with 0.5 mL of the overnight culture and grown for 12-18 h at 30° C. and 160 rpm. Large 4 L Erlenmeyer flasks, each containing 0.4 L YTSS medium, were inoculated with 4 mL of the overnight culture and supplemented with 1 mM of each of the elicitors (14-18). The cultures were grown for 3 d at 30° C. and roseobacticides purified as described below.
Eight to ten 0.25 L Erlenmeyer flasks each containing 25 mL of YTSS medium and a range of elicitor concentrations (between 0 and 1.2 mM) were inoculated with 0.25 mL of an overnight P. gallaeciensis BS107 culture prepared as described above. These were grown at 30° C. and 160 rpm. After 3 d, each culture was extracted twice with 25 mL of EtOAc. The organic phase was combined, dried over Na2SO4, and subsequently dried in vacuo. The residue was resuspended in 0.3 mL MeOH and analyzed by HPLC-MS as described above. The amount of roseobacticide B (7) produced, which was quantified by massion extraction ([M+H]^+=269), was plotted against the concentration of the elicitor. The maximal amount of 7 was normalized to 100%, and the EC50, the elicitor concentration where production of 7 was half-maximal, was obtained by fitting the data to equation 1, where Bmax and Bmin are the maximal (˜100%) and minimal (˜0%) amounts of 7 and p is a Hill slope parameter to account for variations in the slope. Bmax and Bmin were allowed to vary to obtain the optimal fit as judged by the R^2 correlation value.

Bacillus subtilis 3610 = test: IC50 of Roseobacticide A against selected bacterial strains (disc diffusion / 96 well plate); type: cell-based
Experimental: (§5) Selected bacterial strains (see Table 4) were tested against Roseobacticide A using the disc diffusion assay (Gauvreau, D. & Waring, M., 1982, J. Appl. Microbiol. Biotechnol. 115:104-110). Overnight cultures of each test strain in YTSS were diluted 1000-fold into YTSS containing 0.7% agar and poured into standard Petri dish plates. Blank paper discs (8 mm, Fisher Scientific) were loaded with 50 μg of phaeobactin A and placed on top of the agar. The plates were incubated at 30° C. for 12-24 h and the presence or absence of an inhibition zone was monitored visually. Ampicillin (0.5 μg) and MeOH were used as positive and negative controls, respectively. In addition, the assay was carried out in 96 well plates according to the 2003 guidelines of the Clinical and Laboratory Standards Institute (CLSI, formerly NCCLS) with minor changes.
(§6) Roseobacters were grown and tested in YTSS medium, B. subtilis 3610 in LB, and P. tunicate D2 in Marine Broth (Difco 2216). Inocula for each test organism were prepared by suspending a colony from an agar plate into 5 mL of YTSS, LB, or Marine Broth in 15 mL bacterial culture tubes. These were grown overnight, and then adjusted to 1×10^8 cells/mL. These cell suspensions were used as inocula for 96 well plate assays: 10 μL of inoculum, corresponding to 1×10^6 cells was added to 90 μL of the appropriate medium and supplemented with 10 μL medium (negative control), 10 μL of MeOH (negative control), 10 μL of 0.5 mg/mL, or 0.25 mg/mL of Roseobacticide A. The assay against each test strain was carried out in duplicate. The plate was incubated without shaking for 24 hours at 30° C., and the OD650 nm determined on a Molecular Devices 96 well plate reader. […] The OD650 nm for the wells containing Roseobacticide A in all each cases was between 80-100% of the value determined for the respective negative controls.

[1] = test system: Phaeobacter gallaeciensis 2.10; test: as above; type: cell-based
Experimental: as §5, §6

[2] = test system: Phaeobacter gallaeciensis BS107; test: as above; type: cell-based
Experimental: as §5, §6

[3] = test system: Pseudoalteromonas tunicata D2; test: as above; type: cell-based
Experimental: as §5, §6

Reugeria sp. R11 = test: as above; type: cell-based
Experimental: as §5, §6

[4] = test system: Silicibacter pomeroyi DSS3; test: as above; type: cell-based; details: Ruegeria pomeroyi
Experimental: as §5, §6

Silicibacter sp. TM1040 = test: as above; type: cell-based
Experimental: as §5, §6

Vibrio anguillarum = test: as above; type: cell-based
Experimental: as §5, §6

[5] = test system: Chaetoceros muelleri CCMP1318; test: Algaecidal assay, cell counts by flow cytometry and microscopy; type: cell-based
Experimental: as §1, §2, §3

Isochrysis sp. CCMP468 = test: as above; type: cell-based; details: Isochrysis sp. CCMP468, 24 h, flow cytometry
Experimental: as §1, §2, §3

[6] = test system: Rhodomonas salina CCMP1319; test: as above; type: cell-based; details: for IC50: Rhodomonas salina CCMP1319, 24 h, flow cytometry
Experimental: as §1, §2, §3

[7] = test system: Tetraselmis suecica CCMP908; test: as above; type: cell-based; details: Tetraselmis suecica CCMP908, 24 h, flow cytometry
Experimental: as §1, §2, §3

[8] = test system: panel of marine bacteria and B. subtilis 3610; test: Antibacterial assay against the whole panel of test strains (96 well plate, OD650); type: cell-based; details: 10 μL of 0.5 mg/mL or 0.25 mg/mL, 24 hours, 30° C., all test strains
Experimental: as §5
Roseobacters were grown and tested in YTSS medium, B. subtilis 3610 in LB, and P. tunicate D2 in Marine Broth (Difco 2216). […] The plate was incubated without shaking for 24 hours at 30° C., and the OD650 nm determined on a Molecular Devices 96 well plate reader. […] The OD650 nm for the wells containing Roseobacticide A in all each cases was between 80-100% of the value determined for the respective negative controls.

algae = test: Algicidal activity (lysis of algae), summary over algae; type: cell-based; details: read-out: LC50 range, algicidal activity
Experimental: as §1, §2
as §3, with “For flow cytometry counts, duplicate 0.5 ml samples were fixed with 0.125% (vol/vol) glutaraldehyde in the dark for 10 min.” left out

P. gallaeciensis = test: Growth (OD650 nm) of P. gallaeciensis cultivated with pCA; type: cell-based, Phaeobacter gallaeciensis; details: 1 mM pCA, YTSS medium, 3 d, triplicate
Experimental: as §4
The profiles shown in FIG. 1B have not been corrected for the lower cell density observed in the presence of pCA.

S. pomeroyi DSS-3 = test: pCA-dependent changes of HPLC-MS profile; type: cell-based, Silicibacter pomeroyi DSS-3; details: 0.1-3 mM pCA
Experimental: as §4
(§7) The inventors cultured three roseobacter strains—S. pomeroyi DSS-3, Ruegeria sp. R11, and P. gallaeciensis BS107—in the presence of varying pCA concentrations (0.1-3 mM). At various time points, the cultures were extracted with ethyl acetate and analyzed by HPLC-MS. The HPLC-MS profiles from S. pomeroyi and Ruegeria sp. […] In the absence of pCA, these compounds were not produced by P. gallaeciensis under any of the conditions that were investigated.

Ruegeria sp. R11 = test: pCA-dependent changes of HPLC-MS profile; type: cell-based; details: 0.1-3 mM pCA
Experimental: as §4, §7

[9] = BS107, 72 h, 3 d culture, HPLC-MS ion extraction, read-out: EC50, elicitor concentration where production of roseobacticide B (7) is half-maximal

CSSc1cccc2c(-c3ccccc3)c(=O)oc-2c1 [Roseobacticide E]
initial bioassays against E. huxleyi (Emiliana huxleyi CCMP372): potent antialgal compounds

CSc1ccccc2c(-c3ccccc3)c(=O)oc1-2 [Roseobacticide B]
IC50 (Emiliana huxleyi CCMP372): 0.19 µM and ≥ 0.19 µM
algal cell population damaged yet intact (Emiliana huxleyi CCMP372): 48%
effect of incubation on E. huxleyi cells (Emiliana huxleyi CCMP372): cell lysis after 24 h, with cellular damage visible after 12 h

COc1cc(/C=C/C(=O)O)ccc1O [Roseobacticide 16, ferulic acid]
secondary metabolite production by HPLC-MS (P. gallaeciensis BS107): production of a variety of new metabolites
EC50 (P. gallaeciensis BS107; [9]): 160 ± 20 µM

CSc1cccc2c(-c3ccc(O)cc3)c(=O)oc-2c1 [Roseobacticide A]
IC50 (Bacillus subtilis 3610): > 160 µM
IC50 [1]: > 160 µM
IC50 [2]: > 160 µM
IC50 [3]: > 160 µM
IC50 (Reugeria sp. R11): > 160 µM
IC50 [4]: > 160 µM
IC50 (Silicibacter sp. TM1040): > 160 µM
IC50 (Vibrio anguillarum): > 160 µM
effect on C. muelleri cell shape ([5]; 3.5 μM, 24 h): major morphological changes
IC50 ([5]; Chaetoceros muelleri CCMP1318, 24 h, flow cytometry): > 35 µM
IC50 (Emiliana huxleyi CCMP372): ≥ 2.2 µM
algal cell population damaged yet intact (Emiliana huxleyi CCMP372): 20%
effect of incubation on E. huxleyi cells (Emiliana huxleyi CCMP372): cell lysis after 24 h, with cellular damage visible after 12 h
IC50 (Isochrysis sp. CCMP468): > 35 µM
IC50 [6]: ≥ 0.1 µM
IC50 ([6]; Rhodomonas salina, 24 h): 0.1 µM
susceptibility of the R. salina population ([6]; dose response, micrographs): Only a subpopulation appears to be susceptible
IC50 [7]: > 35 µM
OD650 nm relative to the respective negative controls [8]: 80-100%
CC50 (algae): 0.1 to 35 µM

COc1cc(/C=C/C(=O)O)cc(OC)c1O [Roseobacticide 15, sinapic acid]
secondary metabolite production by HPLC-MS (P. gallaeciensis BS107): production of a variety of new metabolites
EC50 (P. gallaeciensis BS107; [9]): 430 ± 30 µM

O=C(O)/C=C/c1ccc(O)cc1 [pCA, p-coumaric acid]
secondary metabolite production by HPLC-MS (P. gallaeciensis BS107): stimulated the production of a family of compounds
secondary metabolite production by HPLC-MS (P. gallaeciensis BS107; listed as 14): production of a variety of new metabolites
EC50 (P. gallaeciensis BS107; [9]): 790 ± 30 µM
EC50 (P. gallaeciensis BS107; BS107, FIG. 1C, average of two measurements, read-out: EC50, dose-response of (6) as a function of [pCA]): 790 ± 30 µM
OD650 nm lower than cultures without pCA (P. gallaeciensis): 17±8%
changes of HPLC-MS profile (S. pomeroyi DSS-3): no significant pCA-dependent changes
changes of HPLC-MS profile (Ruegeria sp. R11): no significant pCA-dependent changes

CSc1cccc2c(-c3c[nH]c4ccccc34)c(=O)oc-2c1 [Roseobacticide C]
initial bioassays against E. huxleyi (Emiliana huxleyi CCMP372): potent antialgal compounds
